Drawing on patent publication EP4741383A1, “COMPOUND AND USE THEREOF AS ANTI-CANCER DRUG” (Tyligand Bioscience (Shanghai) Limited, priority 2023, dated 2025), this text covers inhibition for three compounds.

Molecules are shown by their SMILES.

The term inhibition denotes the change of the read-out against control, counted positive when it falls.

For one series, the target named is T1, CYP2B6 (Homo sapiens, UniProt P20813).
T1 construct: tissue Corning or Xenotech; host or cells: human liver microsomes
T1 sequence (P20813 1-491): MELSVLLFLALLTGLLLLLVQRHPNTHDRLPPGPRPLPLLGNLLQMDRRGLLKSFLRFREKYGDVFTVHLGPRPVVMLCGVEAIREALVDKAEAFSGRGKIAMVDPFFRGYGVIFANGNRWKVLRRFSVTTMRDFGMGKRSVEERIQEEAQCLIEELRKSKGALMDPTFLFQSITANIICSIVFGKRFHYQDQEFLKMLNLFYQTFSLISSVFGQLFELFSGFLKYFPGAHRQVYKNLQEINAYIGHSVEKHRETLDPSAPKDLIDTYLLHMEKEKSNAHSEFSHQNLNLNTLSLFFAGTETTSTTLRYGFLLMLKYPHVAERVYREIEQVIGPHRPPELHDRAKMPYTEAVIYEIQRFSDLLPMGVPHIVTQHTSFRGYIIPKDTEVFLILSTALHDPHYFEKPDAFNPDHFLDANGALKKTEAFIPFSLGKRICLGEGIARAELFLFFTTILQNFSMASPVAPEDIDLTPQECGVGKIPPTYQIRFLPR
Briefly: CYP450 inhibition in human liver microsomes, CYP2B6. In kind it is in vitro ADME. The settings on record: pH 7.4, read-out: % CYP inhibition @ 10 µM 2B6. The text has this:
(§1) According to standard methods in the field for the study of cytochrome P450 enzyme systems, such as the method described in Kerns, Edward H. and Di Li et al., Drug-like Properties: Concepts, Structure Design and Methods: from ADME to Toxicity Optimization (2008), San Diego, Academic Press, and Lin, Tong et al., In Vitro Assessment of Cytochrome P450 Inhibition: Strategies for Increasing LC/MS-Based Assay Throughput Using a One-Point IC50 Method and Multiplexing High-Performance Liquid Chromatography (J. Pharm. Sci. 2007, 96 (9), 2485). The inhibitory effect of the disclosed compounds on the cytochrome P450 enzyme system was similarly examined below.
(§2) Human liver microsomes were purchased from Corning or Xenotech. The test compounds were evaluated by detecting the metabolism of substrates for different Cyp450 isoforms by human liver microsomes.
(§3) 0.1 M potassium phosphate buffer (K-buffer, pH 7.4) was pre-warmed.
(§4) 100 mM K-buffer was prepared by mixing 9.5 mL of stock solution A (1 M potassium dihydrogen phosphate, prepared by dissolving 136.5 g of potassium dihydrogen phosphate in 1 L of Milli-Q water) with 40.5 mL of stock solution B (1 M potassium hydrogen phosphate, prepared by dissolving 174.2 g of potassium hydrogen phosphate in 1 L of Milli-Q water). The total volume was adjusted to 500 mL with Milli-Q water, and the buffer was titrated to pH 7.4 using KOH or H3PO4.
(§5) Test compound solution and specific inhibitor solution (400× dilution) were prepared in a 96-well plate. For the test compound, 8 µL of 10 mM test compound was transferred into 12 µL of ACN. For specific inhibitors of CYP1A2, CYP2C9, and CYP2D6: 12 µL of 1 mM α-naphthoflavone, 10 µL of 40 mM sulfaphenazole, 10 µL of 10 mM quinidine, and 8 µL of DMSO were mixed. For specific inhibitors of CYP3A4, CYP2B6, CYP2C8, and CYP2C19: 8 µL of DMSO stock solution was added to 12 µL of ACN.
(§6) A 4× diluted NADPH solution was prepared by dissolving 66.7 mg of NADPH in 10 mL of 0.1 M K-buffer (pH 7.4). […]

In a further series the target is T2, CYP2C8 (Homo sapiens, UniProt P10632).
T2 construct: tissue Corning or Xenotech; host or cells: human liver microsomes
T2 sequence (P10632 1-490): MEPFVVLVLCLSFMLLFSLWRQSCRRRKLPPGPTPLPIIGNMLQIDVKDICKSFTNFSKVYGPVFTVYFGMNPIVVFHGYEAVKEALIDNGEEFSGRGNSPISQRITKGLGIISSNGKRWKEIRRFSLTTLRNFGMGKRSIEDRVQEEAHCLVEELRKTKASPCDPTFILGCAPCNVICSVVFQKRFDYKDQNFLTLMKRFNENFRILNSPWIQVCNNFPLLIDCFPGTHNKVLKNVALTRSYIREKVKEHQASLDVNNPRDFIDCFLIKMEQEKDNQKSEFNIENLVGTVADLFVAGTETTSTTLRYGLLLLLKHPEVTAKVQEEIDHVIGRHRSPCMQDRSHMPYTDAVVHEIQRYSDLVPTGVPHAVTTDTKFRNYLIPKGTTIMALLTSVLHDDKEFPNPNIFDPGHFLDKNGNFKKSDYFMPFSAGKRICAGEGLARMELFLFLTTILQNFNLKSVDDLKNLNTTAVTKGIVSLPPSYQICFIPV
Briefly: CYP450 inhibition in human liver microsomes, CYP2C8. In kind it is in vitro ADME. The conditions noted are these: pH 7.4, read-out: % CYP inhibition @ 10 µM 2C8.
From the text: as §1, §2, §3, §4, §5, §6
On the technique in general: Liver microsomes are vesicles of endoplasmic reticulum, rich in cytochrome P450 enzymes.

`O=C(Nc1ccc(-c2cc3cc(F)c(-c4nnn[nH]4)cc3n2C2CCC2)cc1)C(=O)Nc1ccc(N2CCC3(CCOC3)CC2)cc1` [Example 67]: the inhibition at 10 min, 10 µM is 15.3% on CYP2B6 and 39.2% at CYP2C8.

For `CC1(n2c(-c3ccc(NC(=O)C(=O)Nc4ccc(N5CCC6(CCOC6)CC5)cc4)cc3)cc3cc(F)c(-c4nnn[nH]4)cc32)CCC1` [Example 68], the inhibition at 10 min, 10 µM at CYP2B6 came to 7.06%; on CYP2C8, 42.1%.

With `O=C(Nc1ccc(-c2cc3cc(F)c(-c4nnn[nH]4)cc3n2C2CCC2)cc1)C(=O)Nc1ccc(N2CCC(CO)CC2)cc1` [Example 23], the inhibition at 10 min, 10 µM was 1.32% on CYP2B6 and 43.8% at CYP2C8.
